Assay results reported in patent US6737383B1, “Herbicidal oxadiazolidines” (priority 1999, dated 2004).

Key:
bedstraw = assay: Test B pre/postemergence bedstraw; type: in vivo, Galium aparine; settings: Preemergence; for Bedstraw plant response rating: scale of 0 to 10 where 0 is no effect and 10 is complete control
Outline: (§1)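 Herbicidal effect was estimated by eye on a ten-point control scale after plants spent twelve to sixteen days in a greenhouse following soil or foliar treatment. Foliar sprays targeted plants at one to four leaves; all doses were formulated in a non-phytotoxic solvent with surfactant.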

blackgrass = assay: Test B pre/postemergence blackgrass; type: in vivo, Alopecurus myosuroides; settings: for Blackgrass plant response rating: scale of 0 to 10 where 0 is no effect and 10 is complete control
Outline: as §1

surinam grass = assay: Test B pre/postemergence surinam grass; type: in vivo, Brachiaria decumbens; settings: for B. signalgrass plant response rating: scale of 0 to 10 where 0 is no effect and 10 is complete control
Outline: as §1

cocklebur = assay: Test B pre/postemergence cocklebur; type: in vivo, Xanthium strumarium; settings: for Cocklebur plant response rating: scale of 0 to 10 where 0 is no effect and 10 is complete control
Outline: as §1

corn = assay: Test B pre/postemergence corn; type: in vivo, Zea mays; settings: for Corn plant response rating: scale of 0 to 10 where 0 is no effect and 10 is complete control
Outline: as §1

morningglory = assay: Test B pre/postemergence morningglory; type: in vivo, Ipomoea hederacea; settings: for Morningglory plant response rating: scale of 0 to 10 where 0 is no effect and 10 is complete control
Outline: as §1

pigweed = assay: Test B pre/postemergence pigweed; type: in vivo, Amaranthus retroflexus; settings: for Redroot pigweed plant response rating: scale of 0 to 10 where 0 is no effect and 10 is complete control
Outline: as §1

rape = assay: Test B pre/postemergence rape; type: in vivo, Brassica napus; settings: for Rape plant response rating: scale of 0 to 10 where 0 is no effect and 10 is complete control
Outline: as §1

velvetleaf = assay: Test B pre/postemergence velvetleaf; type: in vivo, Abutilon theophrasti; settings: for Velvetleaf plant response rating: scale of 0 to 10 where 0 is no effect and 10 is complete control
Outline: as §1

wheat = assay: Test B pre/postemergence wheat; type: in vivo, Triticum aestivum; settings: for Wheat plant response rating: scale of 0 to 10 where 0 is no effect and 10 is complete control
Outline: as §1

wild oat = assay: Test B pre/postemergence wild oat; type: in vivo, Avena fatua; settings: for Wild oats plant response rating: scale of 0 to 10 where 0 is no effect and 10 is complete control
Outline: as §1

purple nutsedge = assay: Test B pre/postemergence purple nutsedge; type: in vivo, Cyperus rotundus; settings: for Nutsedge plant response rating: scale of 0 to 10 where 0 is no effect and 10 is complete control
Outline: as §1

rice = assay: Test B flood test rice; type: in vivo, Oryza sativa
Outline: (§2)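 Read-out is a visual response score from 0 (no effect) to 10 (complete control), assigned by comparison with untreated controls. Treatment was applied at the 2-leaf stage, and plants stayed in the greenhouse for twelve to sixteen days before scoring.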

smallflower flatsedge = assay: Test B flood test smallflower flatsedge; type: in vivo, Cyperus difformis
Outline: as §2

duck salad = assay: Test B flood test duck salad; type: in vivo, Heteranthera limosa
Outline: as §2

bamyardgrass = assay: Test B flood test barnyardgrass; type: in vivo, Echinochloa crus-galli
Outline: as §2

[1] = Postemergence, Rate 125 g/ha, scale 0 to 10, 0 is no effect, 10 is complete control
[2] = Postemergence, Rate 250 g/ha, scale 0 to 10, 0 is no effect, 10 is complete control
[3] = Preemergence, Rate 62 g/ha, scale 0 to 10 (0 no effect, 10 complete control)
[4] = Rate 500 g/ha, Postemergence, scale 0 to 10, 0 no effect, 10 complete control
[5] = Rate 62 g/ha, flood test species, Pre-emergence, visual evaluation after twelve to sixteen days
[6] = Rate 125 g/ha, under heading Pre-emergence, flood test species, visual evaluation after twelve to sixteen days
[7] = Rate 250 g/ha, Pre-emergence, flood-test species, scale 0 to 10, 0 is no effect, 10 is complete control
[8] = Rate 500 g/ha, Pre-emergence, flood test species, scale 0 to 10 (0 no effect, 10 complete control)

CC(C)N(C(=O)n1oc(=O)n(CC2CCOC2)c1=O)c1ccc(F)cc1 (stereo not drawn) [Compound 375]
Plant response rating, Bedstraw (bedstraw; Rate 62 g/ha, scale 0 to 10 (0 no effect, 10 complete control)): 6 | Bedstraw plant response rating (0 to 10 scale) (bedstraw; Rate 125 g/ha): 10 | Bedstraw plant response rating (bedstraw; Rate 250 g/ha): 10 | Bedstraw plant response rating (bedstraw; Rate 500 g/ha): 10 | Plant response rating, Blackgrass (blackgrass; [1]): 5 | Plant response rating, Blackgrass (blackgrass; [2]): 5 | Plant response rating, Blackgrass (blackgrass; [3]): 3 | Blackgrass plant response rating (0 to 10 scale) (blackgrass; Preemergence, Rate 125 g/ha): 5 | Blackgrass plant response rating (blackgrass; Preemergence, Rate 250 g/ha): 9 | Blackgrass plant response rating (blackgrass; Preemergence, Rate 500 g/ha): 10 | Blackgrass plant response rating (blackgrass; Rate 62 g/ha, Postemergence): 2 | Plant response rating, Blackgrass (blackgrass; [4]): 8 | Plant response rating, B. signalgrass (surinam grass; [1]): 0 | Plant response rating, B. signalgrass (surinam grass; [2]): 2 | Plant response rating, B. signalgrass (surinam grass; [3]): 0 | B. signalgrass plant response rating (0 to 10 scale, 0 is no effect, 10 is complete control) (surinam grass; Preemergence, Rate 125 g/ha): 0 | B. signalgrass plant response rating (surinam grass; Preemergence, Rate 250 g/ha): 4 | B. signalgrass plant response rating (surinam grass; Preemergence, Rate 500 g/ha): 8 | B. signalgrass plant response rating (surinam grass; Rate 62 g/ha, Postemergence): 0 | Plant response rating, B. signalgrass (surinam grass; [4]): 8 | Plant response rating, Cocklebur (cocklebur; [1]): 0 | Plant response rating, Cocklebur (cocklebur; [2]): 0 | Plant response rating, Cocklebur (cocklebur; [3]): 0 | Cocklebur plant response rating (0 to 10 scale) (cocklebur; Preemergence, Rate 125 g/ha): 0 | Cocklebur plant response rating (cocklebur; Preemergence, Rate 250 g/ha): 0 | Cocklebur plant response rating (cocklebur; Preemergence, Rate 500 g/ha): 0 | Cocklebur plant response rating (cocklebur; Rate 62 g/ha, Postemergence): 0 | Plant response rating, Cocklebur (cocklebur; [4]): 0 | Plant response rating, Corn (corn; [1]): 0 | Plant response rating, Corn (corn; [2]): 0 | Plant response rating, Corn (corn; [3]): 0 | Corn plant response rating (0 to 10 scale) (corn; Preemergence, Rate 125 g/ha): 2 | Corn plant response rating (corn; Preemergence, Rate 250 g/ha): 2 | Corn plant response rating (corn; Preemergence, Rate 500 g/ha): 7 | Corn plant response rating (corn; Rate 62 g/ha, Postemergence): 0 | Plant response rating, Corn (corn; [4]): 2 | Plant response rating, Morningglory (morningglory; [1]): 1 | Plant response rating, Morningglory (morningglory; [2]): 5 | Plant response rating, Morningglory (morningglory; [3]): 0 | Morningglory plant response rating (0 to 10 scale) (morningglory; Preemergence, Rate 125 g/ha): 0 | Morningglory plant response rating (morningglory; Preemergence, Rate 250 g/ha): 0 | Morningglory plant response rating (morningglory; Preemergence, Rate 500 g/ha): 0 | Morningglory plant response rating (morningglory; Rate 62 g/ha, Postemergence): 1 | Plant response rating, Morningglory (morningglory; [4]): 6 | Plant response rating, Redroot pigweed (pigweed; [1]): 0 | Plant response rating, Redroot pigweed (pigweed; [2]): 0 | Plant response rating, Redroot pigweed (pigweed; [3]): 10 | Redroot pigweed plant response rating (0 to 10 scale) (pigweed; Preemergence, Rate 125 g/ha): 10 | Redroot pigweed plant response rating (pigweed; Preemergence, Rate 250 g/ha): 10 | Redroot pigweed plant response rating (pigweed; Preemergence, Rate 500 g/ha): 10 | Redroot pigweed plant response rating (pigweed; Rate 62 g/ha, Postemergence): 0 | Plant response rating, Redroot pigweed (pigweed; [4]): 3 | Plant response rating, Rape (rape; [1]): 0 | Plant response rating, Rape (rape; [2]): 0 | Plant response rating, Rape (rape; [3]): 0 | Rape plant response rating (0 to 10 scale) (rape; Preemergence, Rate 125 g/ha): 2 | Rape plant response rating (rape; Preemergence, Rate 250 g/ha): 6 | Rape plant response rating (rape; Preemergence, Rate 500 g/ha): 8 | Rape plant response rating (rape; Rate 62 g/ha, Postemergence): 0 | Plant response rating, Rape (rape; [4]): 2 | Plant response rating, Velvetleaf (velvetleaf; [1]): 0 | Plant response rating, Velvetleaf (velvetleaf; [2]): 2 | Plant response rating, Velvetleaf (velvetleaf; [3]): 0 | Velvetleaf plant response rating (0 to 10 scale) (velvetleaf; Preemergence, Rate 125 g/ha): 3 | Velvetleaf plant response rating (velvetleaf; Preemergence, Rate 250 g/ha): 4 | Velvetleaf plant response rating (velvetleaf; Preemergence, Rate 500 g/ha): 7 | Velvetleaf plant response rating (velvetleaf; Rate 62 g/ha, Postemergence): 0 | Plant response rating, Velvetleaf (velvetleaf; [4]): 4 | Plant response rating, Wheat (wheat; [1]): 0 | Plant response rating, Wheat (wheat; [2]): 2 | Plant response rating, Wheat (wheat; [3]): 0 | Wheat plant response rating (0 to 10 scale) (wheat; Preemergence, Rate 125 g/ha): 0 | Wheat plant response rating (wheat; Preemergence, Rate 250 g/ha): 2 | Wheat plant response rating (wheat; Preemergence, Rate 500 g/ha): 3 | Wheat plant response rating (wheat; Rate 62 g/ha, Postemergence): 0 | Plant response rating, Wheat (wheat; [4]): 6 | Plant response rating, Wild oats (wild oat; [1]): 0 | Plant response rating, Wild oats (wild oat; [2]): 6 | Plant response rating, Wild oats (wild oat; [3]): 0 | Wild oats plant response rating (0 to 10 scale) (wild oat; Preemergence, Rate 125 g/ha): 4 | Wild oats plant response rating (wild oat; Preemergence, Rate 250 g/ha): 9 | Wild oats plant response rating (wild oat; Preemergence, Rate 500 g/ha): 9 | Wild oats plant response rating (wild oat; Rate 62 g/ha, Postemergence): 0 | Plant response rating, Wild oats (wild oat; [4]): 8 | Plant response rating, Nutsedge (purple nutsedge; [1]): 0 | Plant response rating, Nutsedge (purple nutsedge; [2]): 0 | Plant response rating, Nutsedge (purple nutsedge; [3]): 0 | Nutsedge plant response rating (0 to 10 scale) (purple nutsedge; Preemergence, Rate 125 g/ha): 0 | Nutsedge plant response rating (purple nutsedge; Preemergence, Rate 250 g/ha): 0 | Nutsedge plant response rating (purple nutsedge; Preemergence, Rate 500 g/ha): 0 | Nutsedge plant response rating (purple nutsedge; Rate 62 g/ha, Postemergence): 0 | Plant response rating, Nutsedge (purple nutsedge; [4]): 6 | Plant response rating, Rice (0 to 10 scale, 0 is no effect, 10 is complete control) (rice; [5]): 0 | Rice plant response rating (0 to 10 scale, 0 is no effect, 10 is complete control) (rice; [6]): 0 | Rice plant response rating (rice; [7]): 0 | Rice plant response rating (rice; [8]): 0 | Plant response rating, S. Flatsedge (0 to 10 scale, 0 is no effect, 10 is complete control) (smallflower flatsedge; [5]): 0 | S. Flatsedge plant response rating (0 to 10 scale, 0 is no effect, 10 is complete control) (smallflower flatsedge; [6]): 0 | S. Flatsedge plant response rating (smallflower flatsedge; [7]): 0 | S. Flatsedge plant response rating (smallflower flatsedge; [8]): 0 | Plant response rating, Ducksalad (0 to 10 scale, 0 is no effect, 10 is complete control) (duck salad; [5]): 0 | Ducksalad plant response rating (0 to 10 scale, 0 is no effect, 10 is complete control) (duck salad; [6]): 0 | Ducksalad plant response rating (duck salad; [7]): 0 | Ducksalad plant response rating (duck salad; [8]): 0 | Plant response rating, Barnyardgrass (0 to 10 scale, 0 is no effect, 10 is complete control) (bamyardgrass; [5]): 0 | Barnyardgrass plant response rating (0 to 10 scale, 0 is no effect, 10 is complete control) (bamyardgrass; [6]): 0 | Barnyardgrass plant response rating (bamyardgrass; [7]): 0 | Barnyardgrass plant response rating (bamyardgrass; [8]): 0
